Counter-ions that a name gives are not always drawn.
Experiments:
Format in all cases: functional
[1] = Growth inhibition of human leukemia cell by NCI-CLS assay
[2] = system: NSCLC; assay: Growth inhibition of human NSCLC cell by NCI-CLS assay
[3] = Growth inhibition of human colon cancer cell by NCI-CLS assay; details: Cancer cell lines
[4] = Growth inhibition of human CNS cancer cell by NCI-CLS assay; details: Cancer cell lines; for CC50: read-out: LC50 (the source's name)
[5] = Growth inhibition of human melanoma cell by NCI-CLS assay; details: for CC50: read-out: LC50 (the source's name)
[6] = Growth inhibition of human ovarian cancer cell by NCI-CLS assay; details: Cancer cell lines; for CC50: read-out: LC50 (the source's name)
[7] = Growth inhibition of human renal cancer cell by NCI-CLS assay; details: Cancer cell lines; for CC50: read-out: LC50 (the source's name)
[8] = Growth inhibition of human prostate cancer cell by NCI-CLS assay; details: Cancer cell lines; for CC50: read-out: LC50 (the source's name)
[9] = Growth inhibition of human breast cancer cell by NCI-CLS assay; details: Cancer cell lines; for CC50: read-out: LC50 (the source's name)

SMILES | GI50 [1] | TGI [1] | GI50 [2] | TGI [2] | GI50 [3] | TGI [3] | GI50 [4] | TGI [4] | GI50 [5] | TGI [5] | CC50 [5] | GI50 [6] | TGI [6] | GI50 [7] | TGI [7] | CC50 [7] | GI50 [8] | TGI [8] | GI50 [9] | TGI [9] | other results
O=C1Nc2cccc(I)c2/C1=C\c1cccc(/C=C2/C(=O)Nc3cccc(I)c32)n1 | 0.9 µM | 30.9 µM | 1.3 µM | 5 µM | 0.5 µM | 1.9 µM | 1.2 µM | 4 µM | 1 µM | 3.2 µM | 13.5 µM | 1.1 µM | 5.6 µM | 0.9 µM | 2.6 µM | 8.3 µM | 0.6 µM | 2.2 µM | 0.8 µM | 4.4 µM | LC50 [2]: 21.9 µM; LC50 [3]: 7.6 µM; CC50 [4]: 13.8 µM; CC50 [6]: 22.4 µM; CC50 [8]: 24 µM; CC50 [9]: 21.9 µM
O=C1Nc2cccc(Cl)c2/C1=C\c1ccc2ccc3ccc(/C=C4/C(=O)Nc5cccc(Cl)c54)nc3c2n1 | 1.1 µM | 30.2 µM | 25.7 µM | 79.4 µM | 3.9 µM | 30.9 µM | 7.4 µM | 34.7 µM | 13.2 µM | 42.7 µM | 61.7 µM | 6.2 µM | 30.9 µM | 9.5 µM | 58.9 µM | 97.7 µM | 3.8 µM | 31.6 µM | 14.4 µM | 70.8 µM | LC50 [3]: 79.4 µM; CC50 [4]: 77.6 µM; CC50 [6]: 70.8 µM; CC50 [8]: 79.4 µM; CC50 [9]: 93.3 µM
COc1ccc2c(c1)/C(=C\c1cc(C(C)(C)C)cc(/C=C3/C(=O)Nc4ccc(OC)cc43)c1O)C(=O)N2 | 3.9 µM | 43.6 µM | 8.7 µM | 32.4 µM | 6.3 µM | 19.9 µM | 4.8 µM | 21.4 µM | 4.4 µM | 13.2 µM | 39.8 µM | 5.9 µM | 25.1 µM | 7.2 µM | 22.4 µM | 61.7 µM | 4.8 µM | 24.5 µM | 5.5 µM | 31.6 µM | LC50 [2]: 69.2 µM; LC50 [3]: 53.7 µM; CC50 [4]: 66.1 µM; CC50 [6]: 61.7 µM; CC50 [8]: 72.4 µM; CC50 [9]: 63.1 µM
COc1ccc(OC)c2c1NC(=O)/C2=C/c1cccc(/C=C2/C(=O)Nc3c(OC)ccc(OC)c32)n1 | 0.4 µM | 8.7 µM | 0.9 µM | 18.6 µM | 0.5 µM | 1.9 µM | 0.7 µM | 3.6 µM | 0.7 µM | 2.2 µM | 13.5 µM | 0.8 µM | 11.2 µM | 0.7 µM | 2.5 µM | 18.2 µM | 0.5 µM | 3.4 µM | 0.7 µM | 17.4 µM | LC50 [1]: 64.6 µM; LC50 [2]: 85.1 µM; LC50 [3]: 22.4 µM; CC50 [4]: 21.9 µM; CC50 [6]: 27.5 µM; CC50 [8]: 25.1 µM; CC50 [9]: 60.3 µM
COc1ccc2c(c1)/C(=C\c1ccc3ccc4ccc(/C=C5/C(=O)Nc6ccc(OC)cc65)nc4c3n1)C(=O)N2 | 3 µM | 60.3 µM | 3.2 µM | 28.2 µM | 2.8 µM | 16.2 µM | 3.8 µM | – | 3.2 µM | 11.5 µM | 74.1 µM | 5.5 µM | 58.9 µM | 3.3 µM | 19.5 µM | 97.7 µM | 3.7 µM | 36.3 µM | 3.9 µM | 75.9 µM | LC50 [2]: 75.9 µM
O=Cc1cccc(/C=C2/C(=O)Nc3c2ccc2ccccc32)n1 | 2.5 µM | 7.6 µM | 14.4 µM | 37.1 µM | 9.5 µM | 44.7 µM | 11.2 µM | 33.9 µM | 11.5 µM | 35.5 µM | 72.4 µM | 8.7 µM | 30.9 µM | 10.7 µM | 26.9 µM | 74.1 µM | 5.7 µM | 33.1 µM | 6.2 µM | 45.7 µM | LC50 [2]: 85.1 µM; LC50 [3]: 83.2 µM; CC50 [4]: 91.2 µM; CC50 [6]: 72.4 µM; CC50 [8]: 97.7 µM; CC50 [9]: 79.4 µM
CC[C@]1(O)C[C@H]2CN(CCc3c([nH]c4ccccc34)[C@@](C(=O)OC)(c3cc4c(cc3OC)N(C=O)[C@H]3[C@@](O)(C(=O)OC)[C@H](OC(C)=O)[C@]5(CC)C=CCN6CC[C@]43[C@@H]65)C2)C1 [VINCRISTINE SULFATE] | 0.1 µM | 15.8 µM | 0.2 µM | 15.8 µM | 0.1 µM | 4 µM | 0.1 µM | 6.3 µM | 0.2 µM | 7.9 µM | – | 0.3 µM | 19.9 µM | 0.3 µM | 19.9 µM | – | 0.1 µM | 6.3 µM | 0.3 µM | 7.9 µM | –
O=C1Nc2c(ccc3ccccc23)/C1=C\c1cccc(/C=C2/C(=O)Nc3c2ccc2ccccc32)n1 | 1.5 µM | 10 µM | 24 µM | 57.5 µM | 14.4 µM | 44.7 µM | 15.8 µM | 49 µM | 13.8 µM | 38 µM | 77.6 µM | 19 µM | 56.2 µM | 17 µM | 41.7 µM | 79.4 µM | 21.9 µM | 81.3 µM | 17.8 µM | 69.2 µM | LC50 [1]: 77.6 µM; LC50 [2]: 89.1 µM; LC50 [3]: 83.2 µM; CC50 [4]: 85.1 µM; CC50 [6]: 91.2 µM; CC50 [9]: 97.7 µM
COc1ccc2c(c1)/C(=C\c1ccccc1/C=C1/C(=O)Nc3ccc(OC)cc31)C(=O)N2 | 5.4 µM | – | 14.1 µM | 87.1 µM | 7.8 µM | 87.1 µM | 14.1 µM | 72.4 µM | 13.8 µM | 91.2 µM | – | 14.1 µM | – | 21.4 µM | 79.4 µM | – | 14.4 µM | 58.9 µM | 7.8 µM | – | –
COc1ccc2c(c1)/C(=C\c1cc(OC)c(O)c(-c3cc(/C=C4/C(=O)Nc5ccc(OC)cc54)cc(OC)c3O)c1)C(=O)N2 | 6.9 µM | 89.1 µM | 21.9 µM | 95.5 µM | 10.5 µM | 75.9 µM | 6.8 µM | 87.1 µM | 10.7 µM | 93.3 µM | – | 15.1 µM | – | 20.9 µM | 95.5 µM | – | 10.5 µM | – | 13.8 µM | – | –
O=C1Nc2cccc(F)c2C1=Cc1cccc(C=C2C(=O)Nc3cccc(F)c32)n1 | 0.8 µM | 9.8 µM | 2 µM | 10.2 µM | 0.7 µM | 3.3 µM | 1.1 µM | 5.7 µM | 0.9 µM | 2.8 µM | – | 1.6 µM | 8.5 µM | 1.1 µM | 3.8 µM | – | 1.4 µM | 12.9 µM | 0.8 µM | 10 µM | –
CC(C)(C)c1cc(/C=C2/C(=O)Nc3cccc(Cl)c32)c(O)c(/C=C2/C(=O)Nc3cccc(Cl)c32)c1 | 2.8 µM | 46.8 µM | 3.5 µM | 15.1 µM | 2.2 µM | 6.2 µM | 2.3 µM | 11 µM | 2.9 µM | 9.3 µM | 36.3 µM | 2.2 µM | 15.8 µM | 3.6 µM | 15.8 µM | 56.2 µM | 2.2 µM | 10.2 µM | 2.4 µM | 11.5 µM | LC50 [2]: 64.6 µM; LC50 [3]: 21.9 µM; CC50 [4]: 58.9 µM; CC50 [6]: 44.7 µM; CC50 [8]: 72.4 µM; CC50 [9]: 67.6 µM
COc1ccc2c(c1)/C(=C\c1cccc(/C=C3/C(=O)Nc4ccc(OC)cc43)c1)C(=O)N2 | 1 µM | 11.5 µM | 3 µM | 11 µM | 1.7 µM | 7.4 µM | 1.4 µM | 4.3 µM | 1.2 µM | 2.9 µM | 30.2 µM | 2.1 µM | 6.3 µM | 2.5 µM | 6.2 µM | 79.4 µM | 1.7 µM | 4.1 µM | 1.2 µM | 5 µM | LC50 [2]: 85.1 µM; LC50 [3]: 83.2 µM; CC50 [4]: 29.5 µM; CC50 [6]: 95.5 µM; CC50 [8]: 25.7 µM
Cc1[nH]c(C)c(/C=C2/C(=O)Nc3ccc(F)cc32)c1/C=C1/C(=O)Nc2ccc(F)cc21 | 2.4 µM | 9.1 µM | 7.8 µM | 25.1 µM | 5 µM | 17 µM | 3.4 µM | 13.2 µM | 5.1 µM | 18.2 µM | 52.5 µM | 8.1 µM | 25.7 µM | 9.1 µM | 32.4 µM | 75.9 µM | 7.9 µM | 20.4 µM | 4.9 µM | 22.4 µM | LC50 [1]: 37.1 µM; LC50 [2]: 74.1 µM; LC50 [3]: 53.7 µM; CC50 [4]: 46.8 µM; CC50 [6]: 72.4 µM; CC50 [8]: 44.7 µM; CC50 [9]: 70.8 µM
